Reference: publication PMC8466754, “Esterase-Sensitive Prodrugs of a Potent Bisubstrate Inhibitor of Nicotinamide N-Methyltransferase (NNMT) Display Cellular Activity” (Biomolecules, 2021)

Legend:
[1] = Aqueous solubility (observation); type: physicochemical
human cancer cell lines = test system: human cancer cell lines; design: method as in PMID 34424711; settings: range of human cancer cell lines; highest concentration tested 100 µM; cited from earlier work
[2] = test system: A549 human lung cancer line; experiment: MTT cell viability assay, A549; type: cell-based
Procedure: (§1) HSC-2 human oral cancer cell line, T24 human bladder cancer cell line, and A549 human lung cancer line were cultured in DMEM/F12 medium and supplemented with 10% fetal bovine serum and 50 μg/mL gentamicin at 37 °C in a humidified 5% CO2 incubator. For each compound tested, powder was dissolved in DMSO at 100 mM concentration. This stock solution was then diluted in culture medium to final concentration values ranging between 1 µM and 100 µM. For each sample, DMSO was kept constant at 0.1% final concentration. The day before starting treatment, cells were seeded in 96-well plates, at a density of 2000 cells/well. Cells were allowed to attach overnight and then incubated with compounds at different concentrations, or with DMSO only, for 24, 48, and 72 h. All experiments were performed in triplicate.
(§2) Cell proliferation was determined using a colorimetric assay with 3-(4,5-dimethylthiazol-2-yl)-2,5-diphenyl tetrazolium bromide (MTT). The MTT assay measures the conversion of MTT to insoluble formazan by dehydrogenase enzymes of the intact mitochondria of living cells. Cell proliferation was evaluated by measuring the conversion of the tetrazolium salt MTT to formazan crystals upon treatment with compounds or DMSO only for 24, 48, and 72 h. Briefly, cells were incubated for 2 h at 37 °C with 100 µL fresh culture medium containing 5 µL of MTT reagent (5 mg/mL in PBS). The medium was removed and 200 µL isopropanol were added. The amount of formazan crystals formed correlated directly with the number of viable cells. The reaction product was quantified by measuring the absorbance at 540 nm using a plate reader. Experiments were repeated three times. Results were expressed as a percentage of the control (the control equals 100% and corresponds to the absorbance value of each sample at time zero) and presented as mean values ± standard deviation of three independent experiments performed in triplicate.

[3] = test system: T24 human bladder cancer cell line; experiment: MTT cell viability assay, T24; type: cell-based
Procedure: as §1, §2

NNMT [4] = biological target: T1, NNMT (Homo sapiens, UniProt P40261); experiment: 1-Methylnicotinamide (MNA) quantification in A549 cells (LC-MS); settings: A549 lung carcinoma cells; 0.1–100 µM; 24-h treatment (Figure 4)
T1 sequence (P40261 1-264): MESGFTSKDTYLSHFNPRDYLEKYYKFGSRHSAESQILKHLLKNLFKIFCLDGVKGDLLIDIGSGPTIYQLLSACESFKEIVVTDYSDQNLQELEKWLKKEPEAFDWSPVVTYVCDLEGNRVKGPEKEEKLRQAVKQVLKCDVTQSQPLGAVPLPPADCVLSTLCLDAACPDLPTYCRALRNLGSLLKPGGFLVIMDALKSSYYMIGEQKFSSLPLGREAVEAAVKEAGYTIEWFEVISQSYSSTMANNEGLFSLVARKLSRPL
Procedure: Human lung adenocarcinoma line (A549, ATCC, Manassas, VA, USA) was cultured according to the provider’s indications and seeded in 6-well format. […] After incubation, effluent samples were taken and frozen (−80 °C) for further MNA measurement. Cells also were collected, centrifuged (2 × 500 G/5 min.), and frozen both for the measurement of intracellular MNA and for BCA protein assay.
The quantification of 1-methylnicotinamide (MNA), nicotinamide (NA), nicotinic acid (NicA), 1-methyl-2-pyridone-5-carboxamide (Met-2Pyr), and 1-methyl-4-pyridone-5-carboxamide (Met-4Pyr) was performed by applying ultra-high pressure liquid chromatography coupled to tandem mass spectrometry (UPLC-MS) according to the methodology previously described with minor modifications [35]. A UPLC-MS system comprised of a UPLC Ultimate 3000 (Dionex, Thermo Scientific, Waltham, MA, USA) connected to a TSQ Quantum Ultra mass spectrometer (Thermo Scientific, Waltham, MA, USA) equipped with a heated electrospray ionization interface (HESI-II Probe, Waltham, MA, USA) was used. Chromatographic separation of analytes was carried out on an Aquasil C18 analytical column (4.6 mm × 150 mm, 5 mm; Thermo Scientific, Waltham, MA, USA) under isocratic elution using acetonitrile with 0.1% of formic acid (A) and 5 mM ammonium formate in water (B) as mobile phases delivered at the flow rate of 0.8 mL/min (A:B, 80:20, v/v). The cell pellet was resuspended in 60 µL of deionized water and 50 µL of suspension was transferred to a fresh test tube. An amount of 50 µL of effluent sample was used for the measurement of extracellular MNA. The internal standard (IS) containing MNA-d3 was added to each sample (5 µL) obtaining the final concentration of 500 ng/mL. After the sample mixing, the proteins were precipitated using 100 μL of acidified acetonitrile (0.1% of formic acid), and samples were mixed (10 min), cooled at 4 °C (15 min), and finally centrifuged (15,000× g, 15 min, 4 °C). A clear supernatant was transferred to a chromatographic vial and directly injected (5 µL) into UPLC-MS system. […] The concentration of MNA was calculated based on the calibration curve plotted for the analyte as the relationship between the peak area ratios of analyte/IS to the nominal concentration of the analyte. The concentration of analytes was normalized to milligram of proteins, which was assessed using a Pierce^TM BCA Protein Assay Kit (Thermo Fisher, Waltham, MA, USA) and a Synergy4 multiplate reader (BioTek, Winooski, VT, USA). […]
Using this assay, the levels of MNA produced by NNMT in an A549 lung carcinoma cell line can be quantified by means of a sensitive LC-MS method.

[5] = test system: HSC-2 human oral cancer cell line; experiment: MTT cell viability assay, HSC-2; type: cell-based
Procedure: as §1, §2

[6] = Ester stability assay in buffer (RP-HPLC); type: physicochemical; settings: for percentage of compound peak area present after 16 h of incubation, PBS: PBS buffer pH 7.4, 16 h; for percentage of compound peak area present after 16 h of incubation, PBS / percentage of compound peak area present after 16 h of incubation, Tris: room temperature, 1 mM compound; for hydrolytic stability in buffer (in words): PBS pH 7.4 and Tris pH 8.4, over 16 h; for percentage of compound peak area present after 16 h of incubation, Tris: Tris buffer pH 8.4, 16 h
Procedure: The prodrugs were evaluated for their stability in both PBS buffer at pH 7.4 and Tris buffer at pH 8.4. The compounds were dissolved in DMSO at a concentration of 40 mM and diluted with the respective buffer to a final concentration of 1 mM. Compounds were tested directly (t0) and subsequently every 2 h over a time period of 16 h by HPLC. Compounds were eluted from a Dr. Maisch ReproSil-Pur C18 column (4.6 × 250 mm, 10 μm particle size, Dr. Maisch, Ammerbuch-Entringen, Germany) with the following solvent system at a flow rate of 0.5 mL/min: solvent A, 0.1% trifluoroacetic acid in water/acetonitrile (95:5); solvent B, 0.1% trifluoroacetic acid in water/acetonitrile (5:95). Gradient elution was as follows: 100:0 (A/B) to 0:100 (A/B) over 8 min, 0:100 (A/B) for 1 min, then reversion back to 100:0 (A/B) over 1 min, 100:0 (A/B) for 2 min. The formation of the parent compound was evaluated and normalized by measuring the peak area at 214 nm and comparing it to the initial timepoint.
All prodrugs prepared were first tested for their inhibitory activity against NNMT using a biochemical enzymatic activity assay. […] Both these buffers and pHs have been used in the different biochemical and cellular assays described in this report. Compounds were dissolved in DMSO at a concentration of 40 mM and diluted with the respective buffer to a final concentration of 1 mM. Compound stability was then assessed by RP-HPLC directly (t0) and subsequently every 2 h over a time period of 16 h. […] Even for the rather labile methyl ester 12b, the TML group in 14b results in a decrease in hydrolysis of the methyl ester.

NNMT [7] = biological target: T1, NNMT; experiment: Cellular MNA in HMEC-1 cells (Figure S1); type: cell-based; design: concentrations in endothelial HMEC-1 cells after 24-hour incubation; endogenous in cells; host or cells: HMEC-1 endothelial cells; settings: 10 µM, 24-hour incubation
Procedure: The following are available online at https://www.mdpi.com/article/10.3390/biom11091357/s1, Figure S1: cellular MNA data in HMEc-1 cells treated with 10 µM reference inhibitors or prodrugs; ^1H and ^13C NMR spectra of compounds 3e, 4c–e, 8a, 11b–f, 12b–f, 13a–c, 13e, 14a–f.
Figure S1. 1-methylnicotinamide (MNA) concentrations in endothelial HMEC-1 cells after 24-hour incubation
with 10 µM of reference compounds 5-amino-methylquinolinium (5-MQ), 6-methylamino-nicotinamide (6-
MANA), parent compound GYZ-319 or prodrug compounds 12b-f and 14a-e. […]

pig liver esterase (PLE) = experiment: Esterase-mediated hydrolysis to the parent compound (RP-HPLC); type: in vitro ADME
Procedure: The conversion of the prodrugs to the parent compound by esterases was evaluated using pig liver esterase (PLE, 18 U/mg, Sigma-Aldrich, St. Louis, MO, USA) in PBS at pH 7.4. Compounds were dissolved in DMSO at 40 mM, diluted to a final concentration of 2 mM with PBS, and added to an equal volume of a 10 mg/mL solution of PLE in PBS (pH 7.4), resulting in final concentrations of 2.5% DMSO, 1 mM compound, and 5 mg/mL PLE. At different time-points 50 µL aliquots were taken, added to 100 µL acetonitrile to precipitate the proteins, and centrifuged for 5 min at 10,000 rpm. The supernatant was subsequently analyzed by HPLC as described in Section 2.2 above.
The next step was to establish whether compounds 12e and 14e are converted to the parent compound in the presence of an esterase.

Compound	aqueous solubility [1]	antiproliferative effects (human cancer cell lines)	effect on cell viability (MTT) ([2]; 1 and 10 µM, 24, 48 and 72 h)	effect on cell viability (MTT) ([3]; 1 and 10 µM, 24, 48 and 72 h)	effect on cellular MNA levels (NNMT [4])	effect on cell viability (MTT) ([5]; 1 and 10 µM, 24, 48 and 72 h)	percentage of compound peak area present after 16 h of incubation, PBS [6] [%]	hydrolytic stability in buffer (in words) [6]	percentage of compound peak area present after 16 h of incubation, Tris [6] [%]	cellular activity (MNA concentration) compared to parent compound (NNMT [7])	effect on cell viability (MTT) ([2]; 100 µM, 24, 48 and 72 h)	effect on cell viability (MTT) ([3]; 100 µM, 24, 48 and 72 h)	time to full conversion to the parent compound (pig liver esterase (PLE); 5 mg/mL PLE, PBS pH 7.4, 1 mM compound) [h]	hydrolysis in the absence of PLE (pig liver esterase (PLE); PBS pH 7.4, without PLE)	effect on cell viability (MTT) ([5]; 100 µM, 24, 48 and 72 h)
CC(=O)Oc1cc(C)cc(C)c1C(C)(C)CC(=O)N[C@@H](CCN(C/C=C/c1ccc(C#N)cc1)C[C@H]1O[C@@H](n2cnc3c(N)ncnc32)[C@H](O)[C@@H]1O)C(=O)OCc1ccccc1 [Compound 14f, Benzyl-(S)-2-(3-(2-acetoxy-4,6-dimethylphenyl)-3-methylbutanamido)-4-((((2R,3S,4R,5R)-5-(6-amino-9H-purin-9-yl)-3,4-dihydroxytetrahydrofuran-2-yl)methyl)((E)-3-(4-cyanophenyl)allyl)amino)butanoate]	poor aqueous solubility														
N#Cc1ccc(/C=C/CN(CC[C@H](N)C(=O)O)C[C@H]2O[C@@H](n3cnc4c(N)ncnc43)[C@H](O)[C@@H]2O)cc1 [GYZ-319]		only showed significant antiproliferative effects at the highest concentration tested of 100 µM	no effects	no effects	high concentrations of both 6-MANA and GYZ-319 are required to substantially decrease the levels of MNA	no effects									
CC(=O)Oc1cc(C)cc(C)c1C(C)(C)CC(=O)N[C@@H](CCN(C/C=C/c1ccc(C#N)cc1)C[C@H]1O[C@@H](n2cnc3c(N)ncnc32)[C@H](O)[C@@H]1O)C(=O)O [Compound 14a, (S)-2-(3-(2-acetoxy-4,6-dimethylphenyl)-3-methylbutanamido)-4-((((2R,3S,4R,5R)-5-(6-amino-9H-purin-9-yl)-3,4-dihydroxytetrahydrofuran-2-yl)methyl)((E)-3-(4-cyanophenyl)allyl)amino)butanoic acid]							99.10	most stable	93.97	not to improve the cellular activity of the parent compound					
CC(C)OC(=O)[C@@H](N)CCN(C/C=C/c1ccc(C#N)cc1)C[C@H]1O[C@@H](n2cnc3c(N)ncnc32)[C@H](O)[C@@H]1O [Compound 12e, Isopropyl-(S)-2-amino-4-((((2R,3S,4R,5R)-5-(6-amino-9H-purin-9-yl)-3,4-dihydroxytetrahydrofuran-2-yl)methyl)((E)-3-(4-cyanophenyl)allyl)amino)butanoate]			no effects	no effects	clear and significant decrease in MNA levels	no effects	98.59	most stable	93.70		effect comparable to GYZ-319	effect comparable to GYZ-319	≤ 4	no hydrolysis was observed	effect comparable to GYZ-319
